Some test systems named below: A549 NSCLC; SK-MEL-28 melanoma; SF-295 CNS; M14 melanoma; KM12 colon; TK-10 renal; ACHN renal; K-562 leukemia.
What all share (assay): growth of human tumour cells (NCI), 48 h

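In this assay, cells in 96-well plates receive the compound at five concentrations for 48 hours. Endpoints are linearly interpolated between the surrounding concentrations. GI50: concentration for 50% inhibition of growth. At the TGI there is no net growth.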

As for `Cc1nc2sc(C(=O)Nc3cccc4ccccc34)c(N)c2cc1C(=O)/C=C/c1ccccc1`, the GI50 is 0.463 µM in the assay with A549 NSCLC; 0.667 µM with SK-MEL-28 melanoma; 0.514 µM with SF-295 CNS; 0.181 µM with M14 melanoma; 0.368 µM in the assay on KM12 colon; 1.28 µM in the assay on TK-10 renal. For the same molecule, the GI50 with ACHN renal was 0.304 µM; in the assay on K-562 leukemia, 0.191 µM. Besides, the TGI in the assay on A549 NSCLC was over 50 µM; with SK-MEL-28 melanoma, 5.91 µM; in the assay with SF-295 CNS, 3.89 µM; in the assay with M14 melanoma, 1.68 µM; in the assay with KM12 colon, 1.25 µM; in the assay on TK-10 renal it was 8.88 µM. For the same molecule, the TGI in the assay on ACHN renal is 1.25 µM; with K-562 leukemia, over 50 µM.
For the molecule `CC(C)[C@@]12C[C@@H](OC(=O)COC(=O)/C=C/c3ccccc3)[C@@](C)(O1)[C@@H]1CC[C@@H](C)[C@H]1[C@@H]2OC(=O)/C=C/c1ccccc1`, the GI50 with A549 NSCLC, in the assay on SK-MEL-28 melanoma, with SF-295 CNS, in the assay on M14 melanoma, with KM12 colon and in the assay on TK-10 renal was over 100 µM each time. For the same molecule, the figures for the GI50 in the assay on ACHN renal and in the assay on K-562 leukemia were 0.0591 µM and over 78.1 µM, respectively. The TGI in the assay on A549 NSCLC, with SK-MEL-28 melanoma, in the assay with SF-295 CNS, in the assay with M14 melanoma, in the assay with KM12 colon and in the assay with TK-10 renal was over 100 µM each time. The TGI with ACHN renal was 0.443 µM; with K-562 leukemia it was over 100 µM.
With `Cn1c(=O)c(Oc2ccc(F)cc2F)cc2cnc(NC(CO)CO)nc21`, the GI50 in the assay with A549 NSCLC, in the assay on SK-MEL-28 melanoma, in the assay with SF-295 CNS, in the assay with M14 melanoma, in the assay with KM12 colon and with TK-10 renal was over 25 µM in each case. Besides, the GI50 in the assay with ACHN renal and in the assay on K-562 leukemia was over 25 µM each time. The TGI with A549 NSCLC, with SK-MEL-28 melanoma, in the assay on SF-295 CNS, with M14 melanoma, with KM12 colon and in the assay with TK-10 renal was over 25 µM each time. Also, the TGI in the assay with ACHN renal and in the assay on K-562 leukemia was over 25 µM throughout.
Regarding `O=C1Nc2ccccc2C1Cc1ccc([N+](=O)[O-])cc1` (centres undefined), the TGI in the assay on A549 NSCLC, in the assay on SK-MEL-28 melanoma, in the assay with SF-295 CNS, in the assay on M14 melanoma, in the assay on KM12 colon and with TK-10 renal was over 100 µM throughout. Further, the TGI with ACHN renal and in the assay on K-562 leukemia was over 100 µM in each case.
For the molecule `Cc1nc2cnc3cc(F)c(-c4ccc(Oc5ncccn5)cc4Cl)cc3c2n1[C@H]1CCN(C(=O)CO)C[C@@H]1F`, the GI50 in the assay on A549 NSCLC was 1.97 µM; in the assay with SK-MEL-28 melanoma, 0.023 µM; in the assay with SF-295 CNS it was 8.41 µM; with M14 melanoma it was 0.0155 µM; in the assay on KM12 colon it was 0.0405 µM; in the assay with TK-10 renal, 1.76 µM. The GI50 was 8.19 µM in the assay with ACHN renal and 4.6 µM in the assay on K-562 leukemia. Further, the TGI is over 100 µM with A549 NSCLC; 12.1 µM with SK-MEL-28 melanoma; over 57.1 µM with SF-295 CNS; 0.882 µM in the assay with M14 melanoma; over 100 µM in the assay on KM12 colon; 36 µM in the assay with TK-10 renal. Besides, the TGI with ACHN renal and with K-562 leukemia was over 100 µM each time.
In the case of `O=C(/C=C/c1cccs1)c1ccc(Nc2nc(Nc3ccc(F)cc3)nc(Nc3ccc(F)cc3)n2)cc1`, the GI50 in the assay with A549 NSCLC was 3.87 µM; with SK-MEL-28 melanoma, 18.2 µM; in the assay on SF-295 CNS, 20.4 µM; in the assay on M14 melanoma it was 29.7 µM; in the assay with KM12 colon, 16.3 µM; in the assay with TK-10 renal, 40.4 µM. For the same molecule, the GI50 with ACHN renal was 86.5 µM; with K-562 leukemia, 29.9 µM. The TGI with A549 NSCLC was 22.5 µM; in the assay with SK-MEL-28 melanoma it was 39.1 µM; in the assay with SF-295 CNS it was 46.6 µM; in the assay on M14 melanoma it was over 100 µM; in the assay with KM12 colon, 45.2 µM; in the assay with TK-10 renal, over 100 µM. Moreover, the TGI in the assay with ACHN renal and with K-562 leukemia was over 100 µM in each case.
Consider `CCc1cccc2c3c(sc12)C(c1ccc(Cl)cc1)C(C#N)=C(N)O3` (centres undefined), for which the GI50 is 0.736 µM in the assay with A549 NSCLC; 2.06 µM in the assay with SK-MEL-28 melanoma; 0.306 µM in the assay with SF-295 CNS; 0.472 µM with M14 melanoma; 0.447 µM with KM12 colon; 3.18 µM in the assay with TK-10 renal. Besides, the GI50 in the assay with ACHN renal was 0.622 µM; in the assay on K-562 leukemia it was 0.391 µM. Also, the TGI in the assay on A549 NSCLC was 12.9 µM; with SK-MEL-28 melanoma, 19.3 µM; in the assay on SF-295 CNS, 1.17 µM; with M14 melanoma it was 4.79 µM; with KM12 colon, 13.1 µM; in the assay on TK-10 renal it was 15.4 µM. The TGI in the assay with ACHN renal was 14.3 µM; in the assay on K-562 leukemia, over 100 µM.

The values above are taken from PubChem BioAssay (NCI).
